One test has as its system LTP. The test is described as follows: LTP (long-term potentiation) augmentation. The conditions noted are these: LTP Concentration 1 uM.
Test [1] addresses T1, NMDA receptor glycine site, rat cortical membranes (Rattus norvegicus, UniProt P35439).
T1 construct: well washed rat cortical membranes (200 μg); from tissue; host or cells: rat cerebral cortex membranes
Put plainly: [3H] MK-801 binding assay (MK-801 Glycine Site Binding Assay: Rat, Cortex). The conditions noted are these: potentiation of [3H]MK-801 binding (5 nM), 50 μM glutamate, 15 min @25° C. The procedure: Assays were conducted as described in Moskal et al. (Moskal, J. R., Kuo, A. G., Weiss, C., Wood, P. L., O'Connor Hanson, A., Kelso, S., Harris, R. B., Disterhoft, S. F., 2005. GLYX-13: a monoclonal antibody-derived peptide that acts as an N-methyl-D-aspartate receptor modulator. Neuropharmacology. 49, 1077-87) The potentiation of [^3H]MK-801 binding (5 nM; 22.5 Ci/mmol) to well washed rat cortical membranes (200 μg) was measured under non-equilibrium conditions (15 min @25° C.) in the presence of increasing concentrations of test compounds and 50 μM glutamate. Zero levels were determined in the absence of any glycine ligand and in the presence of 30 μM 5.7 DCKA. Maximal stimulation was measured in the presence of 1 mM glycine, and 50 μM glutamate was present in all samples. The facilitation of [^3H]MK-801 binding by tests compounds was calculated by using a 3 parameter log agonist vs. response equation (Graph pad Prism, USA) and potency (EC50, expressed in pM) and maximal activity (% maximal stimulation) were calculated for the test compound.

Data on one compound can be found in patent US10253032B2, “Spiro-lactam NMDA receptor modulators and uses thereof” (Aptinyx Inc., priority 2013, dated 2019).

Each structure is given as a SMILES string. pEC50: −log10 of the molar value.

Consider `NC(=O)C(CO)N1CCCC12CNC2=O` (centres unmarked) [Compound X], for which the “LTP: LTP Augmentation” value with LTP is given as 75%. Moreover, in test [1], the pEC50 (commonly the negative decadic logarithm of the EC50, by convention in mol/L) was 8.61.
